Laboratory results reported in US20140154332A1, “FORMULAS COMPRISING HIGHLY SOLUBLE ELEMENTS AND VITAMIN FOR THE PREVENTION AND AMELIORATION OF OSTEOPOROSIS” (SINOVEDA CANADA, INC., priority 2011, published 2014).

What was measured:
[1] = humans; cited from earlier work
[2] = rats; cited from earlier work
[3] = dual isotope techniques; cited from earlier work
[4] = Calcium, magnesium and zinc balance study in rats receiving calcium free diet (cumulative net percentage, body weight, plasma levels); details: for Cumulative net percentage of calcium / Cumulative net percentage of magnesium / Cumulative net percentage of zinc: n = 5 per group
Description: (§1) Male Sprague-Dawley rats (about 6-7 weeks), with an initial weight between 220 g to 250 g, were randomly divided into different treatment groups. All the rats were housed in individual metabolic cages in a temperature-controlled room. Each rat received free access to the normal diet (Table 34) before the experiment. Both normal and calcium free diets (Table 34) were used in this set of studies. De-ionized water was provided ad libitum. All the rats were weighed before treatment.
(§2) Two sets of studies were performed: a normal diet and calcium free diet. In each study, there were seven treatment groups. […] Rats participating in the normal diet study received normal diet ad libitum throughout. Rats participating in the group of calcium free diet received the calcium free food ad libitum starting five days before and throughout treatment. In both study groups, animals received one dose a day for five days. Amounts of calcium, magnesium and zinc in individual formulation and in each diet were determined using ICP-OES. Values of dosage and dietary intake were measured for the calculation of elemental balance. […] Daily elemental dosages, similar to that of human's, are 53.14 mg/kg for calcium, 0.38 to 55 mg/kg/day for magnesium and 0.017 to 2.5 mg/kg/day for zinc. […] The vehicle for preparing each dose was de-ionized water. The concentration of calcium in all dosage preparations was 15.94 mg/mL. One mL of each preparation was administered by gavage. Body weight, elemental dosage and diet consumption were recorded daily.
(§3) Animals were housed individually in a metabolic cage five days before the study. Food consumption was evaluated daily. Urine and feces were collected daily for four days and the content of calcium, magnesium and zinc was determined. On Day 5, each animal received its treatment. These treatments were administered once a day for four days. After the last treatment, each animal was anesthetized shortly before peak elemental blood concentration was achieved. Blood was collected using a heparinized syringe via cardiac puncture. Immediately after blood collection, the animal was then sacrificed with an overdose of isoflourane. Each blood sample was centrifuged at 1900 rpm at room temperature; plasma was harvested and stored at −20° C. until analysis. Urine was measured daily; it was diluted with de-ionized water, filtered and an aliquot was stored at −20° C. until analysis. Daily fecal output was collected and lyophilized. Each sample was weighed and digested using a mixture of three volume of nitric acid and one volume of perchloric acid. For every gram of dried feces, 10 mL of acid mixture was added. Each sample was digested for three days. The volume of the digested sample was measured and an aliquot of the digest was stored at −20° C. until analysis. The content of calcium, magnesium and zinc in plasma, feces and urine were determined using ICP-OES.
(§4) Daily calcium balance was calculated using equation 1:
(§5) Ca Balance=total Ca intake(dose and dietary intake)−Ca excreted in urine−Ca excreted in feces (1)
(§6) While, percentage of Ca balance was determined using equation 2:
(§7) % Ca balance=Ca balance/(total Ca intake)×100% (2)
(§8) Cumulated calcium balance and % cumulated net calcium balance were calculated using equations (1) and (2), except, the sum of daily intake and excretion was used for calculation. The balance for magnesium and zinc was also calculated using the concept of equations (1) and (2). Cumulated elemental balance and % cumulated net elemental balance were calculated in a similar fashion as described above.
(§9) All results were analyzed using two-way ANOVA. […] The data are presented as mean±S.D. and mean±S.E.M. in tables and figures, respectively.

[5] = Calcium, magnesium and zinc balance study in rats receiving normal diet (cumulative net percentage, body weight, plasma levels); details: for Body weight of rats: normal calcium diet, n = 5; for Cumulative net percentage of calcium / Cumulative net percentage of zinc / Net accumulative percentage of magnesium: normal diet, n = 5 per group
Description: as §1, §2, §3, §4, §5, §6, §7, §8, §9

[6] = 25 mg calcium load, 45Ca; cited from earlier work

Compound: O=C([O-])[O-].[Ca+2] [calcium carbonate]
- average amount absorbed [1]: 24%

Compound: Magnesium gluconate
- bioavailability of magnesium [2]: highest value

Compound: [O]=[Zn] [zinc oxide]
- bioavailability of zinc [3]: approximately 24%

Compound: Calcium Acetate [Ca ACE]
- Cumulative net percentage of calcium ([4]; Day 1, mean ± S.D.): −30.6 ± 51.3%
- Cumulative net percentage of magnesium ([4]; Day 1, mean ± S.D.): −197.2 ± 105.2%
- Cumulative net percentage of zinc ([4]; Day 1, mean ± S.D.): −107.1 ± 85.5%
- Body weight of rats ([4]; Day 1, n = 5): 202.4 ± 9.3 g
- Cumulative net percentage of calcium ([4]; Day 2, mean ± S.D.): −9.88 ± 26.5%
- Cumulative net percentage of magnesium ([4]; Day 2, mean ± S.D.): −150.4 ± 88.9%
- Cumulative net percentage of zinc ([4]; Day 2, mean ± S.D.): −77.7 ± 59.0%
- Body weight of rats ([4]; Day 2, n = 5): 194.8 ± 9.3^$ g
- Cumulative net percentage of calcium ([4]; Day 3, mean ± S.D.): 4.88 ± 24.0%
- Cumulative net percentage of magnesium ([4]; Day 3, mean ± S.D.): −115.3 ± 62.7%
- Cumulative net percentage of zinc ([4]; Day 3, mean ± S.D.): −65.7 ± 66.7%
- Body weight of rats ([4]; Day 3, n = 5): 196.8 ± 10.9 g
- Cumulative net percentage of calcium ([4]; Day 4, mean ± S.D.): 11.1 ± 20.0%
- Cumulative net percentage of magnesium ([4]; Day 4, mean ± S.D.): −93.6 ± 37.2%
- Cumulative net percentage of zinc ([4]; Day 4, mean ± S.D.): −50.5 ± 46.4%
- Body weight of rats ([4]; Day 4, n = 5): 193.4 ± 11.9^$ g
- Body weight of rats ([4]; Day 5, n = 5): 188.0 ± 12.2^$ g
- magnesium balance ([4]; rats): net loss of magnesium
- Body weight of rats ([5]; Day 1, mean ± S.D.): 242.0 ± 7.4 g
- Body weight of rats ([5]; Day 2, mean ± S.D.): 237.0 ± 12.5 g
- Body weight of rats ([5]; Day 3, mean ± S.D.): 239.2 ± 13.9 g
- Body weight of rats ([5]; Day 4, mean ± S.D.): 238.6 ± 13.9 g
- Body weight of rats ([5]; Day 5, mean ± S.D.): 244.0 ± 12.8 g
- Cumulative net percentage of calcium ([5]; Day 1, mean ± S.D.): 14.4 ± 24.0%
- Cumulative net percentage of zinc ([5]; Day 1, mean ± S.D.): 27.5 ± 16.0^%
- Net accumulative percentage of magnesium ([5]; Day 1, mean ± S.D.): 16.7 ± 17.2^%
- Cumulative net percentage of calcium ([5]; Day 2, mean ± S.D.): 26.9 ± 9.0%
- Cumulative net percentage of zinc ([5]; Day 2, mean ± S.D.): 40.9 ± 7.3%
- Net accumulative percentage of magnesium ([5]; Day 2, mean ± S.D.): 29.9 ± 3.8%
- Cumulative net percentage of calcium ([5]; Day 3, mean ± S.D.): 30.3 ± 4.9%
- Cumulative net percentage of zinc ([5]; Day 3, mean ± S.D.): 45.6 ± 5.9%
- Net accumulative percentage of magnesium ([5]; Day 3, mean ± S.D.): 34.3 ± 2.5%
- Cumulative net percentage of calcium ([5]; Day 4, mean ± S.D.): 31.9 ± 3.0%
- Cumulative net percentage of zinc ([5]; Day 4, mean ± S.D.): 48.4 ± 4.4%
- Net accumulative percentage of magnesium ([5]; Day 4, mean ± S.D.): 37.7 ± 2.7%
- Bioavailability of calcium [6]: 45%

Compound: calcium ascorbate
- Bioavailability of calcium [6]: 70%
